Columns and labels:
Antigen-Specific CTL [1] = assay: Action of anti-PD-1 antibody in immune response of antigen-specific CTL for peptide and tumor cell (Test 13); assay type: in vivo, mouse; conditions: splenocyte of mice receiving vaccine b with Example 2 (325 ng per body, twice); antibody 37.5 μg/mL; culture with tumor cells and Peptide SEQ ID No. 1 about three days
Procedure: Vaccine b prepared like Test 8 was injected to a HLA-A*02:01 transgenic mouse intradermally at the tail base area in an amount for administering 300 μg of Compound of formula 4 per body and 225 μg of Peptide SEQ ID No. 3 per body. Or, a vaccine prepared by adding the compound prepared in Example 2 to vaccine b was injected to a HLA-A*02:01 transgenic mouse intradermally at the tail base area in an amount for administering 300 μg of Compound of formula 4 per body, 225 μg of Peptide SEQ ID No. 3 per body, and 325 ng of the compound prepared in Example 2 per body. The administrations were done twice, which had one week interval. One week after the final administration, the mice were sacrificed with CO2 gas, and then spleens removed from the mice. A splenocyte suspension was prepared from the spleens with CTM. And, like Test 11, Peptide SEQ ID No. 1 was pulsed to a part of the splenocyte, and the cell was mixed with LLC-HHD-WT1 tumor cell. To the mixed cells was added an isotype control antibody (Rat IgG2ax, BD Pharmingen) or anti-PD-1 antibody (clone 29F.1A12, Biolegend) at a final concentration of 37.5 μg/mL, and the mixture was cultured at 37° C. under an atmosphere of 5% CO2 for about three days. The concentration of mouse IFN-γ in the culture supernatant was measured with an ELISA kit.

[2] = tested on: mouse bone marrow-derived dendritic cell; assay: Activation of mouse bone marrow-derived dendritic cell, cytokine/chemokine production (Test 4); assay type: cell-based; conditions: 200 nmol/L, one day, compared with only DMSO
Procedure: Myeloid cells were collected from the femur and tibia of HLA-A*02:01 transgenic mouse (C57BL/6CrHLA-A2.1DR1), and then suspended in RPMI 1640 medium with 10% fetal bovine serum (FBS) and 10 ng/mL of GM-CSF. The dendritic cells in the myeloid cells were incubated at 37° C. under an atmosphere of 5% CO2 for induction of differentiation. Seven days after the incubation, the cells were collected. After observing the expression of CD11c on the cell surface by flow cytometry, the cells were cryopreserved. Cryopreserved mouse bone marrow-derived dendritic cells were reconstituted, suspended in RPMI 1640 medium with 10% FBS, and seeded on a U-bottom 96 well plate at 5×10^5 cells/well. The compound prepared in Example 3 was added in the presence of 0.1% (v/v) DMSO to the wells at a final concentration of 200 nmol/L. The plate was incubated at 37° C. under an atmosphere of 5% CO2. One day after the incubation, the culture supernatant was collected. The concentration of cytokine and chemokine (IL-1p, IL-6, IL-12p40, IL-12p70, IP-10, MIP-1α, MIP-1β, Rantes, and TNFα) which were included in each culture supernatant was measured with Milliplex Mouse Cytokine/Chemokine Magnetic Bead Panel kit (Millipore) and Luminex system in accordance with the manufacturer's protocol. […]

Antigen-Specific CTL [3] = assay: Immune response of antigen-specific CTL for peptide and tumor cell, vaccine a (Test 11); assay type: in vivo, mouse
Procedure: The immune response of CTL induced with a vaccine comprising the present compound in the presence of tumor cells was evaluated in the following procedure. The vaccine was administered to a HLA-A*02:01 transgenic mouse to prepare splenocyte comprising an antigen peptide-specific CTL, and the immune response was evaluated by incubating the spelenocyte in the presence of tumor cells and antigen peptides.
Specifically, vaccine a prepared like Test 6 was injected to a HLA-A*02:01 transgenic mouse intradermally at the tail base area in an amount for administering 300 μg of Compound of formula 4 per body and 225 μg of Peptide SEQ ID No. 3 per body. Or, in the step of preparing vaccine a, the compound prepared in Example 3 was added to the diluted peptide solution to prepare a vaccine, and the prepared vaccine was injected to a HLA-A*02:01 transgenic mouse intradermally at the tail base area in an amount for administering 300 μg of Compound of formula 4 per body, 225 μg of Peptide SEQ ID No. 3 per body, and 32.5 ng of the compound prepared in Example 3 per body. The administrations were done twice, which had one week interval. One week after the final administration, the mice were sacrificed with CO2 gas, and then spleens removed from the mice. A splenocyte suspension was prepared from the spleens with Complete T-cell Medium (hereinafter, CTM). The splenocytes derived from each three mice per group were mixed. The mixed splenocytes were stained with an FITC-labeled anti-CD8 antibody (BD Pharmingen) and a PE-labeled HLA tetramer (MBL) against Peptide SEQ ID NO. 1, and analyzed for peptide-specific CTLs with a flow cytometer.
The peptide (SEQ ID No. 1) solution was added to a part of the splenocyte at a final concentration of 100 μg/mL, and the cells were stood for about one hour at 37° C., 5% CO2. After excess peptides were washed out with CTM, the peptide-pulsed splenocyte and unpulsed splenocyte were mixed at a ratio of 1:10, and the mixture was seeded on a U-bottom 96 well plate at 3.85×10^5 cells/well. A cell line (hereinafter, also referred to as LLC-HHD-WT1 tumor cells) was established by stably expressing HHD [a chimeric HLA of a human MHC (HLA-A*02:01) and a mouse MHC (H-2D^b)] and antigen peptide (SEQ ID No. 1) in a mouse Lewis lung carcinoma cell line LLC as tumor cells. X-ray (50 Gy) was irradiated to the LLC-HHD-WT1 tumor cells, and then the LLC-HHD-WT1 tumor cells were cultured in the presence of a mouse recombinant IFN-γ (100 ng/mL) for about two days and washed with CTM. […] The concentration of mouse IFN-γ in the culture supernatant was measured with an ELISA kit (R&D Systems). […] 1, and analyzed for peptide-specific CTLs with a flow cytometer.

Q: With CCCCOc1nc(N)c2[nH]c(=O)n(Cc3ccc(CN(C)CCOCCOCCOCCOCCO)nc3)c2n1 [Example 2, 6-amino-2-butoxy-9-{[6-(16-hydroxy-2-methyl-5,8,11,14-tetraoxa-2-azahexadecan-1-yl)pyridin-3-yl]methyl}-7,9-dihydro-8H-purin-8-one-trifluoroacetate] as the compound, how does the “amount of IFN-γ produced from the CTL with anti-PD-1 antibody relative to isotype control antibody” value (Antigen-Specific CTL [1]) read?
A: The value was 4 times.

Q: How did the “yield of cytokine and chemokine (IL-1β, IL-6, IL-12p40, IL-12p70, IP-10, MIP-1α, MIP-1β, Rantes, TNFα)” value [2] turn out when CCCCOc1nc(N)c2[nH]c(=O)n(Cc3ccc(CN(C)CCOCCOCCOCCOCCO)cc3)c2n1 [Example 3, 6-amino-2-butoxy-9-{[4-(16-hydroxy-2-methyl-5,8,11,14-tetraoxa-2-azahexadecan-1-yl)phenyl]methyl}-7,9-dihydro-8H-purin-8-one] was run?
A: The value was “higher”.

Q: What about the “amount of IFN-γ produced from the CTL in the mixed culture, relative to vaccine a without compound” value (Antigen-Specific CTL [3]; about three days culture with LLC-HHD-WT1 tumor cells and Peptide SEQ ID No. 1, ELISA, average of 3 wells) of the same compound?
A: Its value is 4.9 times.

Q: And the “difference in CTL specific to Peptide SEQ ID No. 1 versus vaccine a without compound” value (Antigen-Specific CTL [3]; after about three days culture with LLC-HHD-WT1 tumor cells and Peptide SEQ ID No. 1)?
A: Its value is 3.6 times.

Q: What about the “CTLs specific to Peptide (SEQ ID No. 1) in splenocyte, relative to vaccine a without compound” value (Antigen-Specific CTL [3]; before culture, flow cytometry (tetramer), 32.5 ng per body in vaccine a, twice) of the same compound?
A: The value was 1.7 times.

Q: What about the “change of CTL specific to Peptide SEQ ID No. 1 on culture with tumor cells” value (Antigen-Specific CTL [3]; splenocytes mixed with tumor cells and cultured in the presence of Peptide SEQ ID No. 1) of the same compound?
A: Its value is “increased”.

Reference: patent US20220241409A1, “WATER SOLUBLE ADJUVANT AND COMPOSITION CONTAINING SAME” (Sumitomo Dainippon Pharma Co., Ltd., priority 2019, published 2022)
